Source: patent US9169260B2 (MERCK SHARP & DOHME CORP., priority 2011, dated 2015)

Target: GST tagged IRAK-4 (Homo sapiens (Human), UniProt Q9NWZ3)
Test: IRAK-4 Kinase Assay (IMAP fluorescence polarization)
Assay type: biochemical
Details: 100 μM ATP, 30 minutes at 25° C.
Method in brief: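 Activity was read by IMAP fluorescence polarization, where phosphopeptide binding to M(III) nanoparticles raises FP. The 30-minute, 25° C reaction used 100 μM ATP, 100 nM RP7030 substrate and 0.5 nM GST-IRAK-4 in pH 7.2 Tris buffer with MgCl2, DTT and Tween 20.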

Chain of GST tagged IRAK-4 (Q9NWZ3 whole entry): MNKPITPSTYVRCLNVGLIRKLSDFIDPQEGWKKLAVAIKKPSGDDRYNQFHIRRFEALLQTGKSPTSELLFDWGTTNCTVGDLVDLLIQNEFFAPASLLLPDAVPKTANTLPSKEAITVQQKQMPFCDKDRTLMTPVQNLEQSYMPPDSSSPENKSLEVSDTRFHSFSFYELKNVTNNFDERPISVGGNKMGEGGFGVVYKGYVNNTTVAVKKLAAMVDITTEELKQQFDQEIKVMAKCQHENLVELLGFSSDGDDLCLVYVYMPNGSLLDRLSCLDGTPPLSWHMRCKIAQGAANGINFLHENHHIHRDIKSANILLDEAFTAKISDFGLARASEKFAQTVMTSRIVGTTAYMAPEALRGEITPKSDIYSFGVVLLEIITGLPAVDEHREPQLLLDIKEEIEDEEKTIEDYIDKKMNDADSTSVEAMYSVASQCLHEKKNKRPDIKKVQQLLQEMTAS

Compound | IC50 (μM) | IC50
Cc1ccc(-n2nc(C3CCCN(S(=O)(=O)C4CC4)C3)cc2NC(=O)c2cnn3cccnc23)cc1 (centres unmarked) [Example 44, N-(3-(1-(cyclopropylsulfonyl)piperidin-3-yl)-1-(p-tolyl)-1H-pyrazol-5-yl)pyrazolo[1,5-a]pyrimidine-3-carboxamide] | < 1 µM | –
O=C(Nc1cc(C2CN(C3CCC3)C2)nn1-c1ccc(C2CC2)cc1F)c1cnn2cccnc12 [Example 89, N-(3-(1-cyclobutylazetidin-3-yl)-1-(4-cyclopropyl-2-fluorophenyl)-1H-pyrazol-5-yl)pyrazolo[1,5-a]pyrimidine-3-carboxamide] | – | < 0.1 µM
methyl((4-(5-(pyrazolo[1,5-a]pyrimidine-3-carboxamido)-1-(p-tolyl)-1H-pyrazol-3-yl)cyclohexyl)methyl)carbamate [Example 183] | < 1 µM | –
O=C(Nc1cc(C2CCNCC2)nn1-c1ccc(C(F)(F)F)cc1)c1cnn2cccnc12 [Example 11, N-(3-(piperidin-4-yl)-1-(4-(trifluoromethyl)phenyl)-1H-pyrazol-5-yl)pyrazolo[1,5-a]pyrimidine-3-carboxamide] | < 1 µM | –
Cc1ccc(-n2nc(C3CCN(C4CCC4)CC3)cc2NC(=O)c2cnn3cccnc23)c(F)c1 [Example 59, N-(3-(1-cyclobutylpiperidin-4-yl)-1-(2-fluoro-4-methylphenyl)-1H-pyrazol-5-yl)pyrazolo[1,5-a]pyrimidine-3-carboxamide] | – | < 0.1 µM
Cc1ccc(-n2nc(C3CCC(C(F)(F)F)CC3)cc2NC(=O)c2cnn3cccnc23)cc1 (centres unmarked) [Example 97, N-(1-(p-tolyl)-3-(4-(trifluoromethyl)cyclohexyl)-1H-pyrazol-5-yl)pyrazolo[1,5-a]pyrimidine-3-carboxamide] | > 1 µM | –
Cc1ccc(-n2nc(C3CCN(S(C)(=O)=O)CC3)cc2NC(=O)c2cnn3cccnc23)c(F)c1 [Example 57, N-(1-(2-fluoro-4-methylphenyl)-3-(1-(methylsulfonyl)piperidin-4-yl)-1H-pyrazol-5-yl)pyrazolo[1,5-a]pyrimidine-3-carboxamide] | – | < 0.1 µM
Cc1ccc(-n2nc(C3CCOCC3)cc2NC(=O)c2cnn3cccnc23)cc1 [Example 46, N-(3-(tetrahydro-2H-pyran-4-yl)-1-(p-tolyl)-1H-pyrazol-5-yl)pyrazolo[1,5-a]pyrimidine-3-carboxamide] | < 1 µM | –
Cc1ccc(-n2nc(CN3CCCC3)cc2NC(=O)c2cnn3cccnc23)cc1 [Example 142, N-(3-(pyrrolidin-1-ylmethyl)-1-(p-tolyl)-1,4-pyrazol-5-yl)pyrazolo[1,5-a]pyrimidine-3-carboxamide] | > 1 µM | –
O=C(Nc1cc(C2CCNCC2)nn1-c1ccc(Br)cc1F)c1cnn2cccnc12 [Example 70, N-(1-(4-bromo-2-fluorophenyl)-3-(piperidin-4-yl)-1H-pyrazol-5-yl)pyrazolo[1,5-a]pyrimidine-3-carboxamide] | < 1 µM | –
Cc1ccc(-n2nc(C3CCN(C(C)C)CC3)cc2NC(=O)c2cnn3cccnc23)cc1 [Example 37, N-(3-(1-isopropylpiperidin-4-yl)-1-(p-tolyl)-1H-pyrazol-5-yl)pyrazolo[1,5-a]pyrimidine-3-carboxamide] | – | < 0.1 µM
NC(=O)c1ccc(-n2nc(C3CCNCC3)cc2NC(=O)c2cnn3cccnc23)nc1 [Example 160, N-(1-(5-carbamoylpyridin-2-yl)-3-(piperidin-4-yl)-1H-pyrazol-5-yl)pyrazolo[1,5-a]pyrimidine-3-carboxamide] | < 1 µM | –
O=C(Nc1cc(C2CCN(S(=O)(=O)C3CC3)CC2)nn1-c1ccc(OC(F)(F)F)cc1)c1cnn2cccnc12 [Example 27, N-(3-(1-(cyclopropylsulfonyl)piperidin-4-yl)-1-(4-(trifluoromethoxy)phenyl)-1H-pyrazol-5-yl)pyrazolo[1,5-a]pyrimidine-3-carboxamide] | > 1 µM | –
O=C(Nc1cc(-c2ccncc2)nn1-c1ccc(F)cc1)c1cnn2cccnc12 [Example 126, N-(1-(4-fluorophenyl)-3-(pyridin-4-yl)-1H-pyrazol-5-yl)pyrazolo[1,5-a]pyrimidine-3-carboxamide] | < 1 µM | –
COc1ccc(-n2nc(C3CCN(C(C)C)CC3)cc2NC(=O)c2cnn3cccnc23)cc1 [Example 47, N-(3-(1-isopropylpiperidin-4-yl)-1-(4-methoxyphenyl)-1H-pyrazol-5-yl)pyrazolo[1,5-a]pyrimidine-3-carboxamide] | – | < 0.1 µM
COC(=O)C1CCC(c2cc(NC(=O)c3cnn4cccnc34)n(-c3ccc(C)cc3)n2)CC1 (centres unmarked) [Example 93, methyl 4-(5-(pyrazolo[1,5-a]pyrimidine-3-carboxamido)-1-(p-tolyl)-1H-pyrazol-3-yl)cyclohexanecarboxylate] | > 1 µM | –
CCN(CC)CCC(=O)N1CCC(c2cc(NC(=O)c3cnn4cc(Br)cnc34)n(-c3ccc(C)cc3)n2)CC1 [Example 114, 6-bromo-N-(3-(1-(3-(diethylamino)propanoyl)piperidin-4-yl)-1-(p-tolyl)-1H-pyrazol-5-yl)pyrazolo[1,5-a]pyrimidine-3-carboxamide] | – | < 0.1 µM
Cc1ccc(-n2nc(C3CCN(S(=O)(=O)C4CC4)CC3)cc2NC(=O)c2cnn3cccnc23)cc1 [Example 26, N-(3-(1-(cyclopropylsulfonyl)piperidin-4-yl)-1-(p-tolyl)-1H-pyrazol-5-yl)pyrazolo[1,5-a]pyrimidine-3-carboxamide] | < 1 µM | –

The next lines start with the values.

IC50 (μM) | IC50 | Compound
< 1 µM | – | Cc1ccc(-n2nc(C3CCCN(Cc4cscn4)C3)cc2NC(=O)c2cnn3cccnc23)cc1 (centres unmarked) [Example 288, N-{1-(4-methylphenyl)-3-[1-(1,3-thiazol-4-ylmethyl)piperidin-3-yl]-1H-pyrazol-5-yl}pyrazolo[1,5-a]pyrimidine-3-carboxamide]
< 1 µM | – | Cc1ccc(-n2nc(-c3csc(N4CCOCC4)n3)cc2NC(=O)c2cnn3cccnc23)cc1 [Example 335, N-[1-(4-methylphenyl)-3-(2-morpholin-4-yl-1,3-thiazol-4-yl)-1H-pyrazol-5-yl]pyrazolo[1,5-a]pyrimidine-3-carboxamide]
< 1 µM | – | Cc1ccc(-n2nc(C3CCN(Cc4ccncc4)CC3)cc2NC(=O)c2cnn3cccnc23)cc1 [Example 224, N-(3-(1-(pyridin-4-ylmethyl)piperidin-4-yl)-1-(p-tolyl)-1H-pyrazol-5-yl)pyrazolo[1,5-a]pyrimidine-3-carboxamide]
– | < 0.1 µM | Cc1ccc(-n2nc(C3CCN(Cc4cn[nH]c4)CC3)cc2NC(=O)c2cnn3cccnc23)cc1 [Example 233, N-{1-(4-methylphenyl)-3-[1-(1H-pyrazol-4-ylmethyl)piperidin-4-yl]-1H-pyrazol-5-yl}pyrazolo[1,5-a]pyrimidine-3-carboxamide]
– | < 0.1 µM | CN1CCN(c2cc(NC(=O)c3cnn4cccnc34)n(-c3ccc(C4CC4)cn3)n2)CC1 [Example 201, N-(1-(5-cyclopropylpyridin-2-yl)-3-(4-methylpiperazin-1-yl)-1H-pyrazol-5-yl)pyrazolo[1,5-a]pyrimidine-3-carboxamide]
< 1 µM | – | Cc1ccc(-n2nc(C3CCN(S(=O)(=O)C4CCCCC4)CC3)cc2NC(=O)c2cnn3cccnc23)cc1 [Example 373, N-{3-[1-(cyclohexylsulfonyl)piperidin-4-yl]-1-(4-methylphenyl)-1H-pyrazol-5-yl}pyrazolo[1,5-a]pyrimidine-3-carboxamide]
– | < 0.1 µM | Cc1ccc(-n2nc(C3CCN(C4CCN(C)CC4)CC3)cc2NC(=O)c2cnn3cccnc23)nc1 [Example 275, N-[3-(1′-methyl-1,4′-bipiperidin-4-yl)-1-(5-methylpyridin-2-yl)-1H-pyrazol-5-yl]pyrazolo[1,5-a]pyrimidine-3-carboxamide]
– | < 0.1 µM | Cc1ccc(-n2nc(C3CCN(Cc4ccccn4)CC3)cc2NC(=O)c2cnn3cccnc23)cc1 [Example 226, N-{1-(4-methylphenyl)-3-[1-(pyridin-2-ylmethyl)piperidin-4-yl]-1H-pyrazol-5-yl}pyrazolo[1,5-a]pyrimidine-3-carboxamide]
> 1 µM | – | Cc1ccc(-n2nc(C3CCN(S(=O)(=O)c4cccc(C(F)(F)F)c4)CC3)cc2NC(=O)c2cnn3cccnc23)cc1 [Example 371, N-[1-(4-methylphenyl)-3-(1-{[3-(trifluoromethyl)phenyl]sulfonyl}piperidin-4-yl)-1H-pyrazol-5-yl]pyrazolo[1,5-a]pyrimidine-3-carboxamide]
< 1 µM | – | Cc1ccc(-n2nc(C3CCN(C4CN(S(=O)(=O)C(C)C)C4)CC3)cc2NC(=O)c2cnn3cccnc23)cc1 [Example 246, N-[3-(1-{1-[(1-methylethyl)sulfonyl]azetidin-3-yl}piperidin-4-yl)-1-(4-methylphenyl)-1H-pyrazol-5-yl]pyrazolo[1,5-a]pyrimidine-3-carboxamide]
– | < 0.1 µM | Cc1ccc(-n2nc(C3CCN(C4CCC(N(C)S(C)(=O)=O)CC4)CC3)cc2NC(=O)c2cnn3cccnc23)nc1 (centres unmarked) [Example 262, N-[3-(1-{4-[methyl(methylsulfonyl)amino]cyclohexyl}piperidin-4-yl)-1-(5-methylpyridin-2-yl)-1H-pyrazol-5-yl]pyrazolo[1,5-a]pyrimidine-3-carboxamide]
– | < 0.1 µM | Cc1ccc(-n2nc(-c3ccc(S(=O)(=O)N4CCC4)cc3)cc2NC(=O)c2cnn3cccnc23)cc1 [Example 344, N-{3-[4-(azetidin-1-ylsulfonyl)phenyl]-1-(4-methylphenyl)-1H-pyrazol-5-yl}pyrazolo[1,5-a]pyrimidine-3-carboxamide]
– | < 0.1 µM | Cc1ccc(-n2nc(C3CCN(C4CCC5CC54)CC3)cc2NC(=O)c2cnn3cccnc23)cc1 (centres unmarked) [Example 254, N-[3-(1-bicyclo[3.1.0]hex-2-ylpiperidin-4-yl)-1-(4-methylphenyl)-1H-pyrazol-5-yl]pyrazolo[1,5-a]pyrimidine-3-carboxamide]
< 1 µM | – | Cc1ccc(-n2nc(C3COCCN3)cc2NC(=O)c2cnn3cccnc23)nc1 (centres unmarked) [Example 166, N-(1-(5-methylpyridin-2-yl)-3-(morpholin-3-yl)-1H-pyrazol-5-yl)pyrazolo[1,5-a]pyrimidine-3-carboxamide]
